The conditions of test [1]: in vivo; cited from earlier work.
The subject of test [2] is wild type, NPY KO mice, and AGRP-NPY double KO mice. Nature of the test: CB-1 inverse agonist - NPY knock out mouse study (overnight food intake). It is filed as in vivo. Particulars: 3 mg/kg orally. As for the experimental part:
AM25 1 was given to wild type, NPY KO Mice, and AGRP-NPY double KO mice orally at 3 mg/kg. Overnight food intake was measured.

The subject of test [3] is wild type and MCH1R KO mice. Description: CB-1 inverse agonist - MCH1R knock out mouse study (2 hour and overnight food intake). Particulars: 5 mg/kg orally. The class given is in vivo. On the procedure:
AM251 was given to wild type and MCH1R KO mice orally at 5 mg/kg. Two hour and overnight food intake were measured.

In test [4] the test system is Wild type or MCH1R KO mice. The following applies: for 2 hour food intake: 1 μg MT-II icv at onset of dark cycle, vs aCSF vehicle. On the procedure: Wild type or MCH1R KO mice were implanted with intracerebroventricular (icv) cannulae for icv administration of compounds. One microgram of MT-II was given by icv injection per animal at the onset of dark cycle and food intake was measured 2 hours post-injection. Overnight body weight differences were also measured. Artificial cerebrospinal fluid (aCSF) was used as a vehicle to dissolve MT-II.

Read-outs that look alike come from different tables or passages of the source.

`CC1(C)O[C@@H]2[C@@H](CO[C@@]3(COS(N)(=O)=O)OC(C)(C)O[C@@H]23)O1` [Topiramate]: the weight loss result in test [1] is on record as “increase weight loss”.

As to `Cc1c(C(=O)NN2CCCCC2)nn(-c2ccc(Cl)cc2Cl)c1-c1ccc(I)cc1` [AM251], the overnight food intake entry in test [2] (AGRP-NPY double KO mice) is reported as “significantly inhibits”; in test [2] (NPY KO mice) it was “significantly inhibits”; in test [2] (wild type mice), “significantly inhibits”; in test [3] (MCH1R KO mice, 5 mg/kg) it was “inhibits”; in test [3] (MCH1R KO mice, listed as AM 251, 5 mg/kg), “significantly inhibited”; in test [3] (wild type mice, 5 mg/kg), “inhibits”. In addition, in test [3] (wild type mice, listed as AM 251, 5 mg/kg), the overnight food intake entry is listed as “significantly inhibited”. In addition, the “2 hour food intake” value in test [3] (MCH1R KO mice) and in test [3] (wild type mice) was “significantly inhibited” throughout.

With Melanotan-II [MT-II], the “overnight body weight compared to vehicle treated mice” value in test [4] (MCH1R KO mice, 1 μg MT-II icv) is “reduced body weight”; in test [4] (wild type mice, 1 μg MT-II icv), “reduced body weight”. Moreover, the “2 hour food intake” value in test [4] (MCH1R KO mice) and in test [4] (wild type mice) was “significantly inhibited” each time. Moreover, in test [4] (MCH-1R knock out mice, 1 μg MT-II icv, overnight), the “decrease of overnight food intake” value is “greater than 80%”. Further, the “decrease in food intake, MCH-1R knock out mice versus wild type mice” value in test [4] (MT-II treated MCH-1R knock out mice compared with MT-II treated wild type mice, FIG. 1) is given as “significantly greater decrease in food intake”. The “overnight decrease in bodyweight, MCH-1R knock out mice versus wild type mice” value in test [4] (MT-II treated MCH-1R knock out mice compared with MT-II treated wild type mice, FIG. 2) is listed as “greater overnight decrease in bodyweight”.

(Values after patent publication US20040122033A1, “Combination therapy for the treatment of obesity” (priority 2002, published 2004).)
